Data as given in patent publication US20250057994A1, “LABELED COMPOUNDS AND CALCIUM SENSING RECEPTOR LIGANDS FOR IMAGING AND USES THEREOF” (The University of North Carolina at Chapel Hill, priority 2021, published 2025).

How the values were obtained:
[1] = In vitro stability of 18F-cinacalcet (incubation, HPLC purity); assay type: physicochemical
Description: (§1) In a non-human primate imaging experiment, the blood samples were drawn from vein at 1 and 3 h post injection.
(§2) Stability of [^18F]F-ZW-cinacalcet. The photoredox labeling method allows access to a new category of PET agent bearing a SP^2-F bond. [^18F]F-ZW-cinacalcet has improved stability compared to the CF3 labeling method. The formulated [^18F]F-ZW-cinacalcet was first incubated in PBS (Phosphate buffered saline containing 8% EtOH), and aliquots were taken for analysis at different time points. […] Subsequently, the in vivo stability of [^18F]F-ZW-cinacalcet was tested in a non-human primate. After injection, a blood sample was collected at 1 and 3 h time points. […] Because the imaging was finished within the first hour, the metabolites were not determined in this study

[2] = In vivo stability in non-human primate blood samples; conditions: for In vivo stability in blood: non-human primate
Description: as §1, §2

[3] = Octanol water partition coefficient (Log P); assay type: physicochemical; conditions: 1-octanol/water; 1-octanol and water system, average value
Source text: Determination of Octanol water Partition Coefficient (Log P).

CSR [4] = target: T1, CSR (Rattus norvegicus, UniProt P48442); assay: Small animal PET/CT imaging of parathyroid in rats (static and dynamic); assay type: in vivo
T1 construct: Normal rats were used as an animal model for initial CSR agent imaging; from tissue; host or cells: rat parathyroid (also lung and other tissues), in vivo and excised sections
T1 sequence (P48442 20-1079): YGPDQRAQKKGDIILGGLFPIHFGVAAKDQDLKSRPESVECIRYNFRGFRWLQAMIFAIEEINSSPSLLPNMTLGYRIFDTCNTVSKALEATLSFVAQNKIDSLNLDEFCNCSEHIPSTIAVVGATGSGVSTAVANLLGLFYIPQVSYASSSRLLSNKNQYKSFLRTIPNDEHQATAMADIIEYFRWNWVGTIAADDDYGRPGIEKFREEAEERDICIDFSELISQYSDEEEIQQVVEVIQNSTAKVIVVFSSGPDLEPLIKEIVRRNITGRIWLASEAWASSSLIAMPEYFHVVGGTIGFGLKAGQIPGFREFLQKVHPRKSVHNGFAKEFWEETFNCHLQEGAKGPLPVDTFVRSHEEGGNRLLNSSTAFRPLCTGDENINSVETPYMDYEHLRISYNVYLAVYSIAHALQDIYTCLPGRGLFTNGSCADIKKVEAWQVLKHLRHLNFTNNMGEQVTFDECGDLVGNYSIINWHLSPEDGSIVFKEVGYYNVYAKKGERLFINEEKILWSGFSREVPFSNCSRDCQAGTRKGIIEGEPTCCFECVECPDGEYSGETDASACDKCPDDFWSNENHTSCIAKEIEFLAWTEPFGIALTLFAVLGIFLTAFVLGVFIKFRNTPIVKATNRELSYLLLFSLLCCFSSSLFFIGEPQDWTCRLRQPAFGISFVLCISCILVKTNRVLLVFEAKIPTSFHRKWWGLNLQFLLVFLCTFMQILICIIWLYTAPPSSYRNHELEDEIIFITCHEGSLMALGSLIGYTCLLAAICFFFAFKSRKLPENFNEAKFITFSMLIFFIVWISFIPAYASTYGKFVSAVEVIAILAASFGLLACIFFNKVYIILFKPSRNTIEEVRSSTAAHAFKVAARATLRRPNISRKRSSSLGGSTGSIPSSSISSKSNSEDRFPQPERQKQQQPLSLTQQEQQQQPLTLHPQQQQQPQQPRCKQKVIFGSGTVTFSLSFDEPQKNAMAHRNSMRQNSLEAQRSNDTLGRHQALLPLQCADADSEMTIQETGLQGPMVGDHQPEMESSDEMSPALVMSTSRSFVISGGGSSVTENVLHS
Description: Normal rats were used as an animal model for initial CSR agent imaging. Surgical dissection of the mouse parathyroid gland is too technically difficult, in contrast to the rat which has approximately 10 times the body mass of a mouse. Analyses were performed by individuals with extensive experience on parathyroid identification for pathology. autoradiography, and microscope study. In brief, animals were anesthetized with isoflurane. For PET probes, dynamic PET imaging was performed after the administration of 1 to 2 mCi of tracer, and animals were imaged with 2 h dynamic scan. A CT scan was also obtained for anatomic registration and attenuation correction. Images were reconstructed to create representative dynamic images for the study (10 min epochs). These images were qualitatively graded to assess the visibility of the parathyroid gland against background tissues. PET kinetic modeling was also performed to evaluate the relative kinetics of uptake of the parathyroid gland compared to the thyroid and other tissues.
^18F-cinacalcet could detect parathyroid gland in rats by targeting CSR. Parathyroid gland are very small (3-5 mm in human) and generally below the detection limit of most imaging methods. The novel CSR PET agent ^18F-cinacalcet was injected in rat and small animal PET imaging was performed. […] In order to confirm the observed signal did come from the very small parathyroid gland instead of thyroid or other tissue, the rats were sacrificed and the localization of radioactivity in the gland tissue was evaluated by autoradiography coupled with pathology staining of neighboring slides.
Small animal-PET CT imaging of parathyroid in rodents. Because the parathyroid is rather small, rats were used instead of mice to evaluate the agent. Static PET scans were acquired in rats at 0.5 h, 1 h and 2 h post injection of [^18F]F-ZW-cinacalcet. Representative coronal PET images are shown in FIG. 15 panel A. Parathyroid could be visualized on the image at the early time point of 0.5 h with a radiotracer uptake of 0.28±0.16% ID/g and parathyroid/muscle ratio of 4.9±0.93.
Dynamic PET images of [^18F]F-ZW-cinacalcet in rats were acquired for 60 minutes. [^18F]F-ZW-cinacalcet accumulated into parathyroid at the earliest timepoints and peaked at about 7 min post injection (0.33±0.05% ID/g), followed by a gradual decline to 0.17±0.01% ID/g at 60 min post injection.
Uptake peaked at 2 min post injection (lung: 1.00±0.19% ID/g; heart: 0.95±0.14% ID/g), with similar kinetics until 10 min post injection. Then, the heart uptake dropped rapidly to 0.15±0.27% ID/g at 60 min post injection, whereas the lung uptake remained at a high level at 60 min post injection of 0.41±0.07% ID/g. In addition, the radiotracer was also observed entering into the brain with a stable uptake level of ˜0.2% ID/g.

CSR [5] = target: T1, CSR; assay: Autoradiography with matched CSR IHC staining of excised rat tissue; assay type: in vivo; conditions: rats
Description: After the imaging of each animal, the parathyroid glands were carefully dissected out and the uptake in parathyroid gland was measured, then subsequently evaluated pathologically to confirm the histology. Autoradiography was performed to study its distribution in gland area. Optical imaging guidance during the surgical procedures was also performed using the developed CSR PET-fluorescence probes. During excision, the surgeon also graded the visibility of the lesions with and without the use of fluorescence. Other critical organs, including the thyroid gland, nearby tissues, and major organs were also dissected out to evaluate the relative uptake within these organs. The localization of radioactivity in the gland tissue was also confirmed by autoradiography coupled with pathology staining of neighboring slides.
^18F-cinacalcet could detect parathyroid gland in rats by targeting CSR. […] In order to confirm the observed signal did come from the very small parathyroid gland instead of thyroid or other tissue, the rats were sacrificed and the localization of radioactivity in the gland tissue was evaluated by autoradiography coupled with pathology staining of neighboring slides.
Autoradiography and pathology. […] Quantitative analysis of autoradiography and IHC staining was expressed as a mean integrated density (Mean IntDen). […]

[6] = dynamic PET, 2 min post injection
[7] = dynamic PET, 60 min post injection
[8] = static PET, 0.5 h post injection

In vitro stability, purity ([1]; 6 h time point): > 90%
Stability in PBS, purity ([1]; PBS containing 8% EtOH, 4 h post incubation): > 95%
In vivo stability in blood ([2]; 1 h post injection): majority of the agent remained untouched
In vivo stability in blood ([2]; 1 h post injection, listed as 18F-cinacalcet): rather stable
In vivo stability in blood ([2]; 3 h post injection): hydrophilic metabolite was observed
In vivo stability in blood ([2]; 3 h post injection, listed as 18F-cinacalcet): significant metabolites are observed
logP [3]: 1.95 ± 0.02
Brain uptake, stable level (CSR [4]; dynamic PET): ~0.2 % ID/g
Heart uptake at peak (CSR [4]; [6]): 0.95±0.14 % ID/g
Lung uptake at peak (CSR [4]; [6]): 1.00±0.19 % ID/g
Muscle uptake (CSR [4]; dynamic PET, 20 min post injection): < 0.06 % ID/g
Heart uptake (CSR [4]; [7]): 0.15±0.27 % ID/g
Lung uptake (CSR [4]; [7]): 0.41±0.07 % ID/g
Parathyroid uptake (CSR [4]; [7]): 0.17±0.01 % ID/g
Parathyroid uptake at peak (CSR [4]; dynamic PET, about 7 min post injection): 0.33±0.05 % ID/g
Time of peak lung and heart uptake (CSR [4]; dynamic PET, post injection): 2 min
Time of peak parathyroid uptake (CSR [4]; dynamic PET, post injection): about 7 min
PET signal in neck area (CSR [4]; small animal PET): clearly demonstrated two hot spots
Parathyroid radiotracer uptake (CSR [4]; [8]): 0.28±0.16 % ID/g
Parathyroid/muscle ratio (CSR [4]; [8]): 4.9±0.93
Parathyroid radioactivity (CSR [4]; static PET, 2 h time point): reverted to the background level
Parathyroid/thyroid ratio in autoradiography (Mean IntDen) (CSR [5]; excised tissue sections): 6.60±1.28
Localization of radioactivity by autoradiography and pathology staining (CSR [5]; neighboring slides): correlated well with parathyroid gland
SMILES: C[C@@H](NCCCc1cccc(C(F)(F)F)c1)c1ccc([18F])c2ccccc12 [[^18F]F-ZW-cinacalcet]
Blood metabolic stability ([2]; Rhesus Macaque, overall judgement): acceptable stability for imaging applications
